Laboratory results from patent publication US8269008B2, “Oxazolopyridine and isoxazolopyridine derivatives for use in the treatment of HIF-mediated conditions” (FibroGen, Inc., priority 2007, dated 2012).

These molecules were tested against T1, HIF-PH2 (EGLN1) (Homo sapiens, UniProt Q9GZT9) (assay: HIF-PH assay (14CO2 capture, peptide-dependent turnover)). Conditions: Concentration 22.22 μM.
T1 construct: made in house; host or cells: insect Hi5 cells
T1 sequence (Q9GZT9 whole entry, species assumed): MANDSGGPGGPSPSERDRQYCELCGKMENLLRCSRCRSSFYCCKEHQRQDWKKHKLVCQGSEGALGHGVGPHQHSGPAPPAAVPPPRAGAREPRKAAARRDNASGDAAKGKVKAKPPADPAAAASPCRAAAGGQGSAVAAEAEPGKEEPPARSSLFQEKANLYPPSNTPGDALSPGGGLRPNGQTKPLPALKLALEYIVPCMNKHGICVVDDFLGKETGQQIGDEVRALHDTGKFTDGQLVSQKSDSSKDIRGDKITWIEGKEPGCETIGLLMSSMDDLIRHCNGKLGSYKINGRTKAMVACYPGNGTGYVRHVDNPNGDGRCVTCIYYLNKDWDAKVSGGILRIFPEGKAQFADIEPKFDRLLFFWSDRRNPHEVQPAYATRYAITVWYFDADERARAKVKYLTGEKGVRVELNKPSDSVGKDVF
Type: biochemical
Excerpt: Ketoglutaric acid α-[1-^14C]-sodium salt, alpha-ketoglutaric acid sodium salt, and HPLC purified peptide may be obtained from commercial sources, e.g., Perkin-Elmer (Wellesley Mass.), Sigma-Aldrich, and SynPep Corp. (Dublin Calif.), respectively. Peptides for use in the assay may be fragments of HIFα as described above or as disclosed in International Publication WO 2005/118836, incorporated by reference herein. For example, a HLF peptide for use in the HIF-PH assay is [methoxycoumarin]-DLDLEALAPYIPADDDFQL-amide. HIF-PH, e.g., HIF-PH2 (EGLN1), can be expressed in, e.g., insect Hi5 cells, and partially purified, e.g., through a SP ion exchange chromatography column. Enzyme activity is determined by capturing ^14CO2 using an assay described by Kivirikko and Myllyla (1982, Methods Enzymol. 82:245-304). Assay reactions contain 50 mM HEPES (pH 7.4), 100 μM α-ketoglutaric acid sodium salt, 0.30 μCi/mL ketoglutaric acid α-[1-^14C]-sodium salt, 40 μM FeSO4, 1 mM ascorbate, 1541.8 units/mL Catalase, with or without 50 μM peptide substrate and various concentrations of compound of the invention. Reactions are initiated by addition of HIF-PH enzyme.
The peptide-dependent percent turnover is calculated by subtracting percent turnover in the absence of peptide from percent turnover in the presence of substrate peptide. Percent inhibition and IC50 are calculated using peptide-dependent percent turnover at given inhibitor concentrations. Calculation of IC50 values for each inhibitor is conducted using GraFit software (Erithacus Software Ltd., Surrey UK). […]
For `O=C(O)CNC(=O)c1nc(-c2ccccc2)c2onc(-c3ccccc3)c2c1O` [Example 13, [(4-Hydroxy-3,7-diphenyl-isoxazolo[5,4-c]pyridine-5-carbonyl)-amino]-acetic acid], the inhibition at 22.22 µM was 98.4%.
Work on `O=C(O)CNC(=O)c1ncc2onc(-c3ccc(Cl)cc3)c2c1O` [Example 14, {[3-(4-Chloro-phenyl)-4-hydroxy-isoxazolo[5,4-c]pyridine-5-carbonyl]-amino}-acetic acid] yielded an inhibition at 22.22 µM of 98.8%.
Work on `O=C(O)CNC(=O)c1ncc2onc(-c3ccccc3Cl)c2c1O` [Example 15, {[3-(2-Chloro-phenyl)-4-hydroxy-isoxazolo[5,4-c]pyridine-5-carbonyl]-amino}-acetic acid] yielded an inhibition at 22.22 µM of 95.7%.
Molecule `COc1ccc(-c2noc3cnc(C(=O)NCC(=O)O)c(O)c23)cc1` [Example 16, {[4-Hydroxy-3-(4-methoxy-phenyl)-isoxazolo[5,4-c]pyridine-5-carbonyl]-amino}-acetic acid] has an inhibition at 22.22 µM of 97.9%.
With `O=C(O)CNC(=O)c1ncc2onc(-c3cccc(Cl)c3)c2c1O` [Example 17, {[3-(3-Chloro-phenyl)-4-hydroxy-isoxazolo[5,4-c]pyridine-5-carbonyl]-amino}-acetic acid] the inhibition at 22.22 µM was 98.6%.
`O=C(O)CNC(=O)c1ncc2onc(-c3c(F)cccc3Cl)c2c1O` [Example 18, {[3-(2-Chloro-6-fluoro-phenyl)-4-hydroxy-isoxazolo[5,4-c]pyridine-5-carbonyl]-amino}-acetic acid] gave an inhibition at 22.22 µM of 88.2%.
`O=C(O)CNC(=O)c1ncc2onc(-c3ccc(F)cc3)c2c1O` [Example 19, {[3-(4-Fluoro-phenyl)-4-hydroxy-isoxazolo[5,4-c]pyridine-5-carbonyl]-amino}-acetic acid] gave an inhibition at 22.22 µM of 97.9%.
With `N#Cc1nc(C(=O)NCC(=O)O)c(O)c2c(-c3ccccc3)noc12` [Example 20, [(7-Cyano-4-hydroxy-3-phenyl-isoxazolo[5,4-c]pyridine-5-carbonyl)-amino]-acetic acid] the inhibition at 22.22 µM was 98.5%.
With `O=C(O)CNC(=O)c1nc(Br)c2onc(-c3ccc(F)cc3)c2c1O` [Example 22, {[7-Bromo-3-(4-fluoro-phenyl)-4-hydroxy-isoxazolo[5,4-c]pyridine-5-carbonyl]-amino}-acetic acid] the inhibition at 22.22 µM was 98.7%.
`N#Cc1nc(C(=O)NCC(=O)O)c(O)c2c(-c3ccc(F)cc3)noc12` [Example 23, {[7-Cyano-3-(4-fluoro-phenyl)-4-hydroxy-isoxazolo[5,4-c]pyridine-5-carbonyl]-amino}-acetic acid] showed an inhibition at 22.22 µM of 98.2%.
Molecule `O=C(O)CNC(=O)c1nc(Br)c2onc(-c3ccc(Cl)cc3)c2c1O` [Example 24, {[7-Bromo-3-(4-chloro-phenyl)-4-hydroxy-isoxazolo[5,4-c]pyridine-5-carbonyl]-amino}-acetic acid] has an inhibition at 22.22 µM of 100%.
`N#Cc1nc(C(=O)NCC(=O)O)c(O)c2c(-c3ccc(Cl)cc3)noc12` [Example 25, {[3-(4-Chloro-phenyl)-7-cyano-4-hydroxy-isoxazolo[5,4-c]pyridine-5-carbonyl]-amino}-acetic acid] showed an inhibition at 22.22 µM of 98.7%.
For `Cc1nc(C(=O)NCC(=O)O)c(O)c2c(-c3ccc(F)cc3)noc12` [Example 26, {[3-(4-Fluoro-phenyl)-4-hydroxy-7-methyl-isoxazolo[5,4-c]pyridine-5-carbonyl]-amino}-acetic acid], the inhibition at 22.22 µM was 93.8%.
For `C#Cc1nc(C(=O)NCC(=O)O)c(O)c2c(-c3ccc(Cl)cc3)noc12` [Example 28, {[3-(4-Chloro-phenyl)-7-ethynyl-4-hydroxy-isoxazolo[5,4-c]pyridine-5-carbonyl]-amino}-acetic acid], the inhibition at 22.22 µM was 96.7%.
`O=C(O)CNC(=O)c1ncc2onc(-c3ccc(-c4ccccc4)cc3)c2c1O` [Example 29, [(3-Biphenyl-4-yl-4-hydroxy-isoxazolo[5,4-c]pyridine-5-carbonyl)-amino]-acetic acid] gave an inhibition at 22.22 µM of 99.4%.
`O=C(O)CNC(=O)c1ncc2onc(-c3cccc(OC(F)(F)F)c3)c2c1O` [Example 32, {[4-Hydroxy-3-(3-trifluoromethoxy-phenyl)-isoxazolo[5,4-c]pyridine-5-carbonyl]-amino}-acetic acid] gave an inhibition at 22.22 µM of 99.1%.
With `O=C(O)CNC(=O)c1nc(-c2cccnc2)c2onc(-c3ccccc3)c2c1O` [Example 33, [(4-Hydroxy-3-phenyl-7-pyridin-3-yl-isoxazolo[5,4-c]pyridine-5-carbonyl)-amino]-acetic acid] the inhibition at 22.22 µM was 99.6%.
`O=C(O)CNC(=O)c1ncc2onc(-c3ccc(C(F)(F)F)cc3)c2c1O` [Example 34, {[4-Hydroxy-3-(4-trifluoromethyl-phenyl)-isoxazolo[5,4-c]pyridine-5-carbonyl]-amino}-acetic acid] was tested, and the inhibition at 22.22 µM was 97.8%.
In the case of `O=C(O)CNC(=O)c1ncc2onc(-c3ccccc3OC(F)(F)F)c2c1O` [Example 35, {[4-Hydroxy-3-(2-trifluoromethoxy-phenyl)-isoxazolo[5,4-c]pyridine-5-carbonyl]-amino}-acetic acid], the inhibition at 22.22 µM is reported as 86.3%.

Same assay, conditions: Concentration 200.00 μM
For `O=C(O)CNC(=O)c1ncc2nc(-c3ccccc3)oc2c1O` [Example 1, [(7-Hydroxy-2-phenyl-oxazolo[4,5-c]pyridine-6-carbonyl)-amino]-acetic acid], the inhibition at 200 µM was 99.8%.
`O=C(O)CNC(=O)c1ncc2nc(-c3ccc(F)cc3)oc2c1O` [Example 2, {[2-(4-Fluoro-phenyl)-7-hydroxy-oxazolo[4,5-c]pyridine-6-carbonyl]-amino}-acetic acid] was tested, and the inhibition at 200 µM was 100%.
With `Cc1nc(C(=O)NCC(=O)O)c(O)c2oc(-c3ccccc3)nc12` [Example 3, [(7-Hydroxy-4-methyl-2-phenyl-oxazolo[4,5-c]pyridine-6-carbonyl)-amino]-acetic acid] the inhibition at 200 µM was 48.9%.
Work on `CCc1nc(C(=O)NCC(=O)O)c(O)c2oc(-c3ccccc3)nc12` [Example 4, [(4-Ethyl-7-hydroxy-2-phenyl-oxazolo[4,5-c]pyridine-6-carbonyl)-amino]-acetic acid] yielded an inhibition at 200 µM of 99.2%.
In the case of `O=C(O)CNC(=O)c1nc(-c2ccccc2)c2nc(-c3ccccc3)oc2c1O` [Example 5, [(7-Hydroxy-2,4-diphenyl-oxazolo[4,5-c]pyridine-6-carbonyl)-amino]-acetic acid], the inhibition at 200 µM is reported as 98.7%.
`O=C(O)CNC(=O)c1nc(C#Cc2ccccc2)c2nc(-c3ccccc3)oc2c1O` [Example 6, [(7-Hydroxy-2-phenyl-4-phenylethynyl-oxazolo[4,5-c]pyridine-6-carbonyl)-amino]-acetic acid] was tested, and the inhibition at 200 µM was 99%.
Work on `CCCCc1nc(C(=O)NCC(=O)O)c(O)c2oc(-c3ccccc3)nc12` [Example 7, [(4-Butyl-7-hydroxy-2-phenyl-oxazolo[4,5-c]pyridine-6-carbonyl)-amino]-acetic acid] yielded an inhibition at 200 µM of 99.5%.
In the case of `O=C(O)CNC(=O)c1nc(-c2ccc(F)cc2)c2nc(-c3ccccc3)oc2c1O` [Example 8, {[4-(4-Fluoro-phenyl)-7-hydroxy-2-phenyl-oxazolo[4,5-c]pyridine-6-carbonyl]-amino}-acetic acid], the inhibition at 200 µM is reported as 97.3%.
With `O=C(O)CNC(=O)c1ncc2oc(-c3ccccc3)nc2c1O` [Example 9, [(7-Hydroxy-2-phenyl-oxazolo[5,4-c]pyridine-6-carbonyl)-amino]-acetic acid] the inhibition at 200 µM was 98.6%.
`COc1cccc(-c2nc(C(=O)NCC(=O)O)c(O)c3oc(-c4ccccc4)nc23)c1` [Example 10, {[7-Hydroxy-4-(3-methoxy-phenyl)-2-phenyl-oxazolo[4,5-c]pyridine-6-carbonyl]-amino}-acetic acid] gave an inhibition at 200 µM of 99%.
`O=C(O)CNC(=O)c1ncc2onc(-c3ccccc3)c2c1O` [Example 11, [(4-Hydroxy-3-phenyl-isoxazolo[5,4-c]pyridine-5-carbonyl)-amino]-acetic acid] gave an inhibition at 200 µM of 99.9%.
With `Cc1nc(C(=O)NCC(=O)O)c(O)c2c(-c3ccccc3)noc12` [Example 12, [(4-Hydroxy-7-methyl-3-phenyl-isoxazolo[5,4-c]pyridine-5-carbonyl)-amino]-acetic acid] the inhibition at 200 µM was 98.6%.
Work on `Cc1nc(C(=O)NCC(=O)O)c(O)c2c(-c3ccc(Cl)cc3)noc12` [Example 21, {[3-(4-Chloro-phenyl)-4-hydroxy-7-methyl-isoxazolo[5,4-c]pyridine-5-carbonyl]-amino}-acetic acid] yielded an inhibition at 200 µM of 99.4%.
`O=C(O)CNC(=O)c1nc(NCC(=O)O)c2onc(-c3cccc(Cl)c3)c2c1O` [Example 27, {[3-(3-Chloro-phenyl)-7-(ethanic acid-2-yl)amino-4-hydroxy-isoxazolo[5,4-c]pyridine-5-carbonyl]-amino}-acetic acid] was tested, and the “% Inhibition (HIF-PH2)” value was 96.45%.
`C[C@H](NC(=O)c1ncc2onc(-c3ccccc3)c2c1O)C(=O)O` [Example 30, 2-[(4-Hydroxy-3-phenyl-isoxazolo[5,4-c]pyridine-5-carbonyl)-amino]-(S)-propionic acid] gave an inhibition at 200 µM of 100%.
With `C[C@@H](NC(=O)c1ncc2onc(-c3ccccc3)c2c1O)C(=O)O` [Example 31, 2-[(4-Hydroxy-3-phenyl-isoxazolo[5,4-c]pyridine-5-carbonyl)-amino]-(R)-propionic acid] the inhibition at 200 µM was 61%.
